Data: patent US20160047819A1, “METHOD FOR DIAGNOSING VAGINAL INFECTIONS” (priority 2013, published 2016)

System: vaginal proteome (human proteins in vaginal fluid)
Assay: MS/MS proteomic analysis of vaginal fluid pools, BV-affected women before (BV) and after rifaximin/placebo treatment: human proteins
Assay type: in vivo
Experimental: Proteomic analysis was performed on 9 pools of vaginal isolates, grouped according to the status of the BV infection: • H pool (from 41 healthy women); BV pool (from 39 BV-affected women); • A-R pool (from 2 women who were in remission after rifaximin treatment-group A); • A-N pool (from 8 women who were not in remission after rifaximin treatment-group A); • B-R pool (from 5 women who were in remission after rifaximin treatment-group B); • B-N pool (from 5 women who were not in remission after rifaximin treatment-group B); • C-R pool (from 4 women who were in remission after rifaximin treatment-group C); • C-N (from 5 women who were not in remission after rifaximin treatment-group C); • D-N (from 10 women who were not in remission after placebo treatment-group D). Scheme of the vaginal fluids collected for testing the diagnostic method is represented in FIG. 1.
In these figures are reported the peptides in the fractionated pools of healthy women, women affected by BV and peptides of women treated with rifaximin. The treatment with rifaximin was at dosage of 100 mg/day for 5 days; (remission, A-R; no remission, A-N), 25 mg/5 days (remission, B-R; no remission, B-N), 100 mg/2 days (remission, C-R; no remission, C-N), and placebo for 5 days (D-N). Two types of comparisons were carried out: (i) between fractionated pools of proteins from vaginal fluid of healthy women (HF) versus fractionated pool of proteins from vaginal fluid of women affected by bacterial vaginosis (BVF); (ii) between whole pools of proteins from vaginal fluid of women affected by BV treated by administering different doses of rifaximin or placebo before (BV) and after (A-R, A-N, B-R, B-N, C-R, C-N, D-N) treatment. Fractioned pools of proteins are obtained, e.g., by separating the proteins by separation on membrane filtration with different membrane porosity, prior to MS/MS analysis.
Nine volumes of acetone: HCl (10:1) were added to the supernatant of the vaginal rinsing and proteins were precipitated by centrifuging at 12000 g for 10 min. The protein pellet was dissolved in 1 mL of 70% ethanol and the sample was spun at 12000 g for 10 min. One mL of acetone was added and the proteins were further precipitated by centrifugation at 12000 g for 5 min. After removing supernatant, pellet was dried by SpeedVac concentrator (Thermo Savant ISS110, Thermo Fisher Scientific, Waltham, Mass.) and then stored at −20° C.
Protein extract was quantified using the 2-D Quant Kit (GE Healthcare, Uppsala, Sweden) according to the manufacturer's instructions.
Patients who were diagnosed for BV at the study visit V1 were included in a multicentre, double-blind, randomised, placebo-controlled study (EudraCT: 2009-011826-32), that was performed to compare the efficacy of different doses of rifaximin vaginal tablets versus placebo for the treatment of BV. The patients underwent a randomisation visit and were distributed into 4 treatment groups: group A received 100 mg rifaximin vaginal tablet once daily for 5 days (n=10), group B received 25 mg rifaximin vaginal tablet once daily for 5 days (n=10), group C received 100 mg rifaximin vaginal tablet once daily for the first 2 days and placebo vaginal tablet for the remaining 3 days (n=9), group D received placebo vaginal tablet once daily for 5 days (n=10). Study medication was administered intra-vaginally at bedtime. After 7 to 10 days from the end of the therapy a follow-up visit (V3) was performed. Remission was evaluated at V3 according to Amsel's criteria (<3) and Gram stain Nugent score (≦3) (Table 1).
Standardized vaginal rinsings with 2 mL of saline were collected for analysis at V1 and V3 by flushing and re-aspirating the fluid through a 22 Gauge needle in the left, central and right upper vaginal vaults. The vaginal rinsings were subsequently stored at −80° C. until use.
MS/MS analysis was carried out for H and BV pools and for the whole BV, A-R, A-N, B-R, B-N, C-R, C-N and D-N pools containing 50 μg of protein each. […]

CO[C@H]1/C=C/O[C@@]2(C)Oc3c(C)c(O)c4c(O)c(c5c(nc6cc(C)ccn65)c4c3C2=O)NC(=O)/C(C)=C\C=C\[C@H](C)[C@H](O)[C@@H](C)[C@@H](O)[C@@H](C)[C@H](OC(C)=O)[C@@H]1C [rifaximin]
Ratio X/H Zyxin (Q15942) (pool A-R after treatment): −3.2 | Ratio X/H Sciellin (O95171) (pool B-N after treatment): 0.0 | Ratio X/H Semenogelin-2 (Q02383) (pool B-N after treatment): −2.3 | Ratio X/H Serine protease 27 (Q9BQR3) (pool B-N after treatment): 0.0 | Ratio X/H Serine/threonine-protein kinase ULK1 (O75385) (pool B-N after treatment): 0.0 | Ratio X/H Serotransferrin (P02787) (pool B-N after treatment): 0.0 | Ratio X/H Serpin B3 (P29508) (pool B-N after treatment): 1.8 | Ratio X/H Serpin B4 (P48594) (pool B-N after treatment): 1.5 | Ratio X/H Serpin B5 (P36952) (pool B-N after treatment): 0.0 | Ratio X/H Serpin B6 (P35237) (pool B-N after treatment): 0.0 | Ratio X/H Serpin B9 (P50453) (pool B-N after treatment): 0.0 | Ratio X/H Serpin B12 (Q96P63) (pool B-N after treatment): −1.8 | Ratio X/H Serpin B13 (Q9UIV8) (pool B-N after treatment): 1.5 | Ratio X/H Serum albumin (P02768) (pool B-N after treatment): 0.0 | Ratio X/H Serum paraoxonase/arylesterase 1 (P27169) (pool B-N after treatment): 1.7 | Ratio X/H Small proline-rich protein 3 (Q9UBC9) (pool B-N after treatment): 0.0 | Ratio X/H Stanniocalcin-1 (P52823) (pool B-N after treatment): 1.7 | Ratio X/H Sulfhydryl oxidase 1 (O00391) (pool B-N after treatment): 0.0 | Ratio X/H Superoxide dismutase [Cu—Zn] (P00441) (pool B-N after treatment): 0.0 | Ratio X/H Suprabasin (Q6UWP8) (pool B-N after treatment): 7.6 | Ratio X/H Syntenin-1 (O00560) (pool B-N after treatment): 2.6 | Ratio X/H Talin-1 (Q9Y490) (pool B-N after treatment): 0.0 | Ratio X/H Tctex1 domain-containing protein 2 (Q8WW35) (pool B-N after treatment): −25.1 | Ratio X/H Teneurin-3 (Q9P273) (pool B-N after treatment): 12.3 | Ratio X/H Thioredoxin (P10599) (pool B-N after treatment): 1.5 | Ratio X/H Transaldolase (P37837) (pool B-N after treatment): 1.6 | Ratio X/H Transmembrane protease serine 11D (O60235) (pool B-N after treatment): −1.6 | Ratio X/H Transthyretin (P02766) (pool B-N after treatment): 0.0 | Ratio X/H Tumor protein D54 (O43399) (pool B-N after treatment): 0.0 | Ratio X/H UTP--glucose-1-phosphate uridylyltransferase (Q16851) (pool B-N after treatment): 0.0 | Ratio X/H UV excision repair protein RAD23 homolog B (P54727) (pool B-N after treatment): −1.6 | Ratio X/H Versican core protein (P13611) (pool B-N after treatment): −1.7 | Ratio X/H Vinculin (P18206) (pool B-N after treatment): 1.5 | Ratio X/H Vitamin D-binding protein (P02774) (pool B-N after treatment): −2.0 | Ratio X/H Werner syndrome ATP-dependent helicase (Q14191) (pool B-N after treatment): 131.2 | Ratio X/H Zinc finger protein 185 (O15231) (pool B-N after treatment): 0.0 | Ratio X/H Zinc finger protein 335 (Q9H4Z2) (pool B-N after treatment): 0.0 | Ratio X/H Zinc-alpha-2-glycoprotein (P25311) (pool B-N after treatment): 0.0 | Ratio X/H Zyxin (Q15942) (pool B-N after treatment): 0.0 | Ratio X/H Sciellin (O95171) (pool B-R after treatment): 0.0 | Ratio X/H Semenogelin-2 (Q02383) (pool B-R after treatment): 5.9 | Ratio X/H Serine protease 27 (Q9BQR3) (pool B-R after treatment): −2.3 | Ratio X/H Serine/threonine-protein kinase ULK1 (O75385) (pool B-R after treatment): −4.4 | Ratio X/H Serotransferrin (P02787) (pool B-R after treatment): −3.9 | Ratio X/H Serpin B3 (P29508) (pool B-R after treatment): 4.3 | Ratio X/H Serpin B4 (P48594) (pool B-R after treatment): 0.0 | Ratio X/H Serpin B5 (P36952) (pool B-R after treatment): −4.7 | Ratio X/H Serpin B6 (P35237) (pool B-R after treatment): 0.0 | Ratio X/H Serpin B9 (P50453) (pool B-R after treatment): −5.6 | Ratio X/H Serpin B12 (Q96P63) (pool B-R after treatment): −1.9 | Ratio X/H Serpin B13 (Q9UIV8) (pool B-R after treatment): 0.0 | Ratio X/H Serum albumin (P02768) (pool B-R after treatment): −13.2 | Ratio X/H Serum paraoxonase/arylesterase 1 (P27169) (pool B-R after treatment): 0.0 | Ratio X/H Small proline-rich protein 3 (Q9UBC9) (pool B-R after treatment): 6.6 | Ratio X/H Stanniocalcin-1 (P52823) (pool B-R after treatment): 113.1 | Ratio X/H Sulfhydryl oxidase 1 (O00391) (pool B-R after treatment): 1.6 | Ratio X/H Superoxide dismutase [Cu—Zn] (P00441) (pool B-R after treatment): −1.5 | Ratio X/H Suprabasin (Q6UWP8) (pool B-R after treatment): 15.1 | Ratio X/H Syntenin-1 (O00560) (pool B-R after treatment): −3.1 | Ratio X/H Talin-1 (Q9Y490) (pool B-R after treatment): −1.6 | Ratio X/H Tctex1 domain-containing protein 2 (Q8WW35) (pool B-R after treatment): 4.2 | Ratio X/H Teneurin-3 (Q9P273) (pool B-R after treatment): −2.3 | Ratio X/H Thioredoxin (P10599) (pool B-R after treatment): 3.1 | Ratio X/H Transaldolase (P37837) (pool B-R after treatment): −1.7 | Ratio X/H Transmembrane protease serine 11D (O60235) (pool B-R after treatment): 2.6 | Ratio X/H Transthyretin (P02766) (pool B-R after treatment): −4.7 | Ratio X/H Tumor protein D54 (O43399) (pool B-R after treatment): 2.2 | Ratio X/H UTP--glucose-1-phosphate uridylyltransferase (Q16851) (pool B-R after treatment): 0.0 | Ratio X/H UV excision repair protein RAD23 homolog B (P54727) (pool B-R after treatment): −2.2 | Ratio X/H Uronyl 2-sulfotransferase (Q9Y2C2) (pool B-R after treatment): 2.1 | Ratio X/H Versican core protein (P13611) (pool B-R after treatment): 2.6 | Ratio X/H Vinculin (P18206) (pool B-R after treatment): 0.0 | Ratio X/H Vitamin D-binding protein (P02774) (pool B-R after treatment): −17.8 | Ratio X/H Werner syndrome ATP-dependent helicase (Q14191) (pool B-R after treatment): 750.5 | Ratio X/H Zinc finger protein 185 (O15231) (pool B-R after treatment): 5.8 | Ratio X/H Zinc finger protein 335 (Q9H4Z2) (pool B-R after treatment): −1.6 | Ratio X/H Zinc-alpha-2-glycoprotein (P25311) (pool B-R after treatment): −9.4 | Ratio X/H Zyxin (Q15942) (pool B-R after treatment): −5.1
